Reference: patent publication US20070117770A1, “Human ribosomal DNA (rDNA) and ribosomal RNA (rRNA) nucleic acids and uses thereof” (Cylene Pharmaceuticals, Inc., priority 2005, published 2007)
pKd: −log10 of the molar value.

Target: T1, nucleolin (Homo sapiens, UniProt P19338)
T1 construct: without the N-terminal acidic stretches domain
Assay: Filter-binding assay of 32P-labeled quadruplexes and Nucleolin
Details: for pKd: 0.2 nM 32P-labeled quadruplex, read-out: Kd, apparent dissociation constant of nucleolin protein and the nucleic acid ligand
Experimental: The assay also was conducted in a filter-binding format. […] The protein-quadruplex mixtures were incubated for 30 min at ambient temperature and filtered through mixed cellulose ester membrane filters (Millipore) with gentle suction. The filters were washed twice with […] of binding buffer, dried and OptiPhase ‘SuperMix’ scintillation cocktail (Perkin Elmer) was added to the wells. Radioactivity was assayed with MicroBeta scintillation counter (Perkin Elmer). Binding curves were constructed and apparent Kd's and Bmax's for the complexes were calculated using the GraphPad Prizm software program (GraphPad Software). In the following table, the nucleic acid ligand is designated in the first column using the nomenclature described herein; the second column provides the nucleotide sequence of the nucleic acid ligand; the third column is the conformation of the ligand as determined by circular dichroism (M is mixed, P is parallel, A is antiparallel, C is complex, SS is single-stranded and ND is not determined); the fourth column is the dissociation constant determined by the filter binding assay of nucleolin protein and the nucleic acid ligand; the fifth column is a Bmax constant determined by the filter binding assay, which is the percent of active nucleic acid ligand in each assay; and the sixth column presents the concentration of Compound A-1 required to dissociate half of the complexed nucleic acid ligand and nucleolin protein, as determined by the EMSA assay described above.

T1 sequence (P19338 284-710 limits assumed): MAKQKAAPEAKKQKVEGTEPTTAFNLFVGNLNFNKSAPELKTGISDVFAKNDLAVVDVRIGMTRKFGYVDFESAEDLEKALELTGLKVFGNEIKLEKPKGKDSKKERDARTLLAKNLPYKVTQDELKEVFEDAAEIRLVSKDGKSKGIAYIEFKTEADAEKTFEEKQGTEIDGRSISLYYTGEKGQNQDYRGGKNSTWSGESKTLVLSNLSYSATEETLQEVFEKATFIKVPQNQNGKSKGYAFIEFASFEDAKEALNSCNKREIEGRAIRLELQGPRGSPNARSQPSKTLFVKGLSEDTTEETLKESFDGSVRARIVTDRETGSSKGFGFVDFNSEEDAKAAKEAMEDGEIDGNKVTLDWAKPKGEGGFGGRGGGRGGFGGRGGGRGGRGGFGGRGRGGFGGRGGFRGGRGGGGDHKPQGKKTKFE

Sequence | Bmax, percent of active nucleic acid ligand [%] | pKd
AGGGACCGGTGGGGCCGGGGCGGGG (DNA, backbone and methylation of C not given here; listed as Homo sapiens) [Compound 3468T] | 21 | 8.62
AGGGACGCCTGGGGAAGGGAGGGGG (DNA, backbone and methylation of C not given here; listed as Homo sapiens) [Compound 1310T] | 50 | 8.36
AGGGACGGGGACCGGCGGGCCACGGGG (DNA, backbone and methylation of C not given here; listed as Homo sapiens) [Compound 13236T] |  | < 7.52
AGGGAGGACGCGGGGCCGGGGGGCGGAGACGGG (DNA, backbone and methylation of C not given here; listed as Homo sapiens) [Compound 8716T] | 49 | 8.51
AGGGAGGGAGACGGGGGGG (DNA, backbone and methylation of C not given here; listed as Homo sapiens) [Compound 5701NT] | 84 | 8.49
AGGGCGCGGGGTGGGGAGGG (DNA, backbone and methylation of C not given here; listed as Homo sapiens) [Compound 10951T] | 52 | 9.70
AGGGCGGACGGGAGGGAGCGAGCGGGCGCGGGGG (DNA, backbone and methylation of C not given here; listed as Homo sapiens) [Compound 3500T] | 20 | 8.96
AGGGCGGGCGGCGGGGCGGG (DNA, backbone and methylation of C not given here; listed as Homo sapiens) [Compound 7499T] | 16 | 8.96
AGGGGACACCGGGGGGGCGCCGGGGG (DNA, backbone and methylation of C not given here; listed as Homo sapiens) [Compound 11888T] | 47 | 9.70
AGGGGAGGGGGGAGGACGGGGAGCGGGGG (DNA, backbone and methylation of C not given here; listed as Homo sapiens) [Compound 10985T] | 35 | 9.70
AGGGGCGGCGGGGAGGAGGAGGGGCGCGGGG (DNA, backbone and methylation of C not given here; listed as Homo sapiens) [Compound 7370T] | 16 | 8.96
AGGGGCGGCGGGGGAAGGGAGGGCGGGTGGAGGGGTCGGGAGGAACGGGGGGCGGG (DNA, backbone and methylation of C not given here; listed as Homo sapiens) [Compound 8440T] | 35 | 9.52
AGGGGCGGGGGCGCGGGGAGGAGGGGTGGG (DNA, backbone and methylation of C not given here; listed as Homo sapiens) [Compound 9024T] | 43 | 9.52
AGGGGCTCCGGGGGCGGGGAGCGGGGCGTGGGCGGGAGGAGGGG (DNA, backbone and methylation of C not given here; listed as Homo sapiens) [Compound 10137T] | 65 | 9.40
AGGGGGGAACGGGGGGCGGACGGGGCCGGGGGGGTAGGGCGGGGGG (DNA, backbone and methylation of C not given here; listed as Homo sapiens) [Compound 11345T] | 32 | 9.52
AGGGGGTGGGCGCCGGGAGGGGGG (DNA, backbone and methylation of C not given here; listed as Homo sapiens) [Compound 8904T] | 31 | 9.40

Sequence | Bmax, percent of active nucleic acid ligand [%] | pKd
AGGGTGGGGCGGGGGAGGGCCGCGAGGGGGGTGCCCCGGGCGTGGGGGGGG (DNA, backbone and methylation of C not given here; listed as Homo sapiens) [Compound 10885T] | 82 | 9.70
AGGGTTAGGGTTAGGGTTAGGG [hTeI, reference compound] |  | < 7.52
GGAGGAGGAGGA (DNA, backbone not given here; listed as Homo sapiens) [GGA4, reference compound] |  | < 7.52
GGGCCCGCGGGGGGAGGGGGAAGGGGCGGG (DNA, backbone and methylation of C not given here; listed as Homo sapiens) [Compound 6914T] | 50 | 9.10
GGGCCGGGACGGGGTCCGGGG (listed as DNA, chemistry not given here; listed as Homo sapiens) [Compound 13173NT] |  | < 7.52
GGGCGGGGGGGGCGGGGGG (DNA, backbone and methylation of C not given here; listed as Homo sapiens) [Compound 6534NT] | 51 | 8.96
GGGCTGGGTCGGTCGGGCTGGGG (listed as DNA, chemistry not given here; listed as Homo sapiens) [Compound 10816NT] |  | < 7.52
GGGGGCGGGAACCCCCGGGCGCCTGTGGG (DNA, backbone and methylation of C not given here; listed as Homo sapiens) [Compound 6374NT] | 47 | 8.26
GGGGTGGGGGGGAGGG (listed as DNA, chemistry not given here; listed as Homo sapiens) [Compound 13079NT] | 37 | 8.59
GGGTCCGGAAGGGGAAGGGTGCCGGCGGGGAGAGAGGGTCGGGGG (DNA, backbone and methylation of C not given here; listed as Homo sapiens) [Compound 7253NT] | 60 | 9.40
GGGTCGGGGGGTGGGGCCCGGGCCGGGG (listed as DNA, chemistry not given here; listed as Homo sapiens) [Compound 2957NT] | 66 | 8.57
GGGTGGACGGGGGGGCCTGGTGGGG (listed as DNA, chemistry not given here; listed as Homo sapiens) [Compound 1196NT] | 41 | 8.38
GGGTGGCGGGGGGGAGAGGGGGG (listed as DNA, chemistry not given here; listed as Homo sapiens) [Compound 6960NT] | 68 | 9.30
GTCGTAACGTCGATCAGTTTACGACAT (DNA, backbone and methylation of C not given here; listed as Homo sapiens) [RND27, reference compound] |  | < 7.52
TGGGGAGGGTGGGGAGGGTGGGGAATT (DNA, backbone not given here; listed as Homo sapiens) [Myc27, reference compound] | 33 | 8.36
